As usually defined, the viability is a read-out of living cells in per cent, often relative to untreated cells.

Structures are written as SMILES.

The nature of this data set: in vitro. The settings on record: human, hela cells, % viability.

`CCN(Cc1cccc(C(=O)O)c1)Cc1noc(C2CCC2)n1` [CBK307708]: the viability at 28.5 h, 10 µM stood at 102%.
With `O=C1CNC(=O)N1CC(O)Cn1c2ccc(Cl)cc2c2cc(Cl)ccc21` (stereo not shown) [CBK265792], the viability at 28.5 h, 10 µM is 90.1%.
On the same count and under the same terms, the figure for `O=C(N[C@@H]1CNCCC[C@H]1O)c1ccc(OCCN2CCOCC2)cc1` [CBK289065] is 98.3%; for `Nc1ncc(-c2ccc(C(=O)N3CCOCC3)cc2)nc1-c1ccc(C[C@H](N)C(=O)O)cc1` [CBK126364] it is 97%.
The same measure, in the same setting: the figure for `Cc1ccc(NC(=O)CC(=O)NCCN2CCOCC2)cc1` [CBK262179] is 92.8%; for `Cc1c(S(=O)(=O)Nc2cc(C(F)(F)F)ccc2N2CCOCC2)cnn1-c1ccccc1` [CBK062551] it is 99.7%.
The same measure, in the same setting: the result for `COc1ccc(C(=O)OC(C)(C)C)c(-c2cncc(NC3CCC(N)CC3)n2)c1` (stereo not shown) [CBK037922] reads 109%.
Regarding `CCN(CC)C(=O)C1CCCN(C(=O)Nc2ccc(Cl)cc2)C1` (stereo not shown) [CBK156136], the viability at 28.5 h, 10 µM worked out at 90.1%.
Same read-out and setting: the result for `O=C1CCCN1C(=O)CN1CCOCC1` [CBK261467] reads 117%; that for `Cc1ccc(S(=O)(=O)c2ccc(C)c(S(=O)(=O)N3CCOCC3)c2)cc1S(=O)(=O)N1CCOCC1` [CBK261677], 94.1%; that for `Cc1ccnc(NCC2CCN(c3ccc4nnnn4n3)C2)c1` (stereo not shown) [CBK306348], 57.3%.
As to `CCn1c(C)nc2cc(NC(=O)Cn3cccc(C(=O)NC4CCCCC4)c3=O)ccc21` [CBK286042], the viability at 28.5 h, 10 µM turned out to be 92.9%.
Consider `CCN1CCN(C(=O)CN(CCc2ccccc2)S(C)(=O)=O)CC1` [CBK266666], for which the viability at 28.5 h, 10 µM was found to be 91.8%.
Consider `NS(=O)(=O)c1cc(C(=O)NCCc2ccc(F)cc2)c(Cl)cc1Cl` [CBK288512], for which the viability at 28.5 h, 10 µM was determined as 96.7%.
As to `CCN(CC(=O)NC(C)C)Cc1nc(-c2cccc(C(F)(F)F)c2)no1` [CBK306039], the viability at 28.5 h, 10 µM turned out to be 88.6%.
Still for that read-out and setting: the result for `NC(=O)c1cc(C2CCCN(CC(=O)NCc3cccs3)C2)n[nH]1` (stereo not shown) [CBK305361] reads 86.6%.
For `Nc1ncc(-c2ccoc2)nc1NCc1ccncc1` [CBK063656], the viability at 28.5 h, 10 µM amounted to 95.1%.
Take `O=C(C1CCCCC1)N1CCCC1c1n[nH]cc1-c1ccncc1` (stereo not shown) [CBK283434]: the viability at 28.5 h, 10 µM came out at 87.2%.
Still for that read-out and setting: the result for `COc1ccc2[nH]c3c(c2c1)CCNC31CCN(CCSc2ccccc2)C1` (stereo not shown) [CBK084541T] reads 92%; that for `O=c1[nH]c2ccccc2n1C1CCN(S(=O)(=O)c2cc(Cl)cc(Cl)c2O)CC1` [CBK149694], 81.4%.
Same read-out and setting: the result for `O=C(CSc1ccccc1[N+](=O)[O-])Oc1ccccc1` [CBK265501] reads 106%; that for `N#Cc1ccc(CN2CCOC3(CCN(C(=O)OCc4ccccc4)CC3)C2)cc1` [CBK161103T], 99.1%; that for `Cc1cccc2cnc(C3CCN(C(=O)CCc4ccno4)CC3)cc12` [CBK285197], 81%.
On to `Cc1ccc(C(=O)C(NC(=O)c2cccs2)Nc2ccc(S(N)(=O)=O)cc2)cc1` (stereo not shown) [CBK264897], for which the viability at 28.5 h, 10 µM worked out at 89%.
Same read-out and setting: the figure for `O=C(c1cc(S(=O)(=O)N2CCCCC2)c(Cl)cc1N1CCOCC1)N1CCOCC1` [CBK263400] is 82.5%.
In the case of `CC(=O)NC(CSc1cc(C)nc2ccc(F)cc12)C(=O)O` (stereo not shown) [CBK286815], the viability at 28.5 h, 10 µM was found to be 91.7%.
In the case of `Cc1nn2c(c1-c1ccccc1)NC(=O)CC2C(=O)O` (stereo not shown) [CBK287118], the viability at 28.5 h, 10 µM turned out to be 95.3%.
On the same count and under the same terms, the figure for `Cc1ccc(C(=O)Nc2nnn(C)n2)c(Cl)c1` [CBK287856] is 97.4%; for `FC(F)(F)c1ccc(Oc2ccc(-c3noc(-c4ccccn4)n3)cc2)nc1` [CBK270152] it is 90.1%.
Same read-out and setting: the figure for `CCCCc1cc(C[C@@H]2C[C@H](NC(=O)N3CCOCC3)C2(C)C)no1` [CBK289257] is 87.9%; for `Cc1nc2ccccc2n1CC(O)COc1ccccc1` (stereo not shown) [CBK288084] it is 106%; for `COc1ccc2[nH]c3c(c2c1)CCOC31CCN(C(=O)Nc2ccc(C(C)C)cc2)CC1` [CBK047154] it is 95.5%.
Still for that read-out and setting: the figure for `O=C(O)CCC(=O)NNC(=O)c1cccc(O)c1` [CBK262116] is 97.8%.
`C[C@@H]1CNCCN1c1nccnc1OCCOc1cccnc1OCCN` [CBK040757T]: the viability at 28.5 h, 10 µM was determined as 88.8%.
Turning to `CC(=O)N1CCN(c2cc(-c3noc([C@@H]4CCCN4C4CCOCC4)n3)ccn2)CC1` [CBK288879], the viability at 28.5 h, 10 µM is 88%.
As for `Cn1cc2c(n1)[C@H]1CN(C(=O)c3cc(C(F)(F)F)nn3C)C[C@H]1C2` [CBK283400], the viability at 28.5 h, 10 µM is 93.8%.
Same read-out and setting: the figure for `CS(=O)(=O)N(CC(=O)NC1CCCCC1)c1cccc2ccccc12` [CBK263770] is 83.9%; for `OC(CN1CCN(Cc2ccc3c(c2)OCO3)CC1)C(F)(F)F` (stereo not shown) [CBK074833] it is 108%; for `O=C(Nc1ccc2ncccc2c1)c1ccoc1` [CBK159823] it is 95.8%.
On to `Cc1csc(C(Cc2ccsc2)NC(=O)Cc2ccccn2)n1` (stereo not shown) [CBK285097], for which the viability at 28.5 h, 10 µM stood at 94.9%.
Same read-out and setting: the figure for `COc1ccccc1-c1cnc2[nH]c(=O)n(CC(C)(C)CO)c2n1` [CBK064690] is 90.2%; for `Cc1cc(=O)c2ccccc2n1CC(=O)N1CCNC(=O)C1C` (stereo not shown) [CBK306511] it is 109%.
`O=C(Nc1ccc(S(=O)(=O)N2CCOCC2)cc1)c1cc(-c2ccccc2)nc2ccccc12` [CBK264790]: the viability at 28.5 h, 10 µM was found to be 103%.
Same read-out and setting: the result for `CC(C)C(=O)Nc1cccc(-c2cn3ccsc3n2)c1` [CBK096253] reads 67%; that for `COc1ccc(CC(=O)Nc2ccc3n(c2=O)C[C@H]2C[C@@H]3CN(C(C)=O)C2)cc1` [CBK289203], 99.1%; that for `CC1(C)COC(=O)N1C1CCN(C(=O)CCS/C=C\c2ccccc2)CC1` [CBK045134], 95.3%.
With `CN(C)CC1CCCN(C(=O)C2C3CCCCC32)C1` (stereo not shown) [CBK282002], the viability at 28.5 h, 10 µM was 82.3%.
As to `O=C1NC(=O)N(c2ccc(O)cc2)C(=O)/C1=C/c1ccc(OCc2ccc(Cl)cc2Cl)cc1` [CBK263842], the viability at 28.5 h, 10 µM (bulk resorufin, single well) is 92.1%.
As for `O[C@H]1[C@H](NCC2CC2)[C@H]2CO[C@H](O2)[C@@H]1N1CCOCC1` [CBK288819], the viability at 28.5 h, 10 µM came to 86.4%.
On to `CCS(=O)(=O)N1CCN(S(=O)(=O)c2ccccc2[N+](=O)[O-])CC1` [CBK264289], for which the viability at 28.5 h, 10 µM was determined as 99%.
For `O=C(c1ccco1)N1CCC(n2cnc3cccnc32)CC1` [CBK283939], the viability at 28.5 h, 10 µM stood at 91.6%.
On the same count and under the same terms, the result for `O=C(NCc1cccs1)c1ccc2[nH]ccc2c1` [CBK149060] reads 83.3%.
For `CC(C)Cn1cnc(S(=O)(=O)N2CCN(CC(=O)NC3CC3)CC2)c1` [CBK304223], the viability at 28.5 h, 10 µM was determined as 95.8%.
Still for that read-out and setting: the figure for `CN(C)c1ncnc2[nH]ncc12` [CBK016810] is 115%; for `c1ccc2cc(-c3cc(Nc4ccc(N5CCOCC5)cc4)ncn3)ccc2c1` [CBK090929] it is 94.2%; for `COc1cc(/C=C/C(=O)O)cc(S(=O)(=O)N2CCOCC2)c1OC` [CBK264078] it is 117%.
Same read-out and setting: the figure for `C[C@H](NC(=O)N1CCN(C(=O)CCCc2c[nH]c3ccccc23)CC1)C(=O)O` [CBK286749] is 88%; for `O=C(N[C@@H](Cn1cc(Cl)c(=O)[nH]c1=O)C(=O)O)C1CCCCC1` [CBK289648] it is 98.7%.
Still for that read-out and setting: the result for `CC(C)Cn1c(=O)c(C(=O)Nc2ccccc2S(N)(=O)=O)c(O)c2ccccc21` [CBK262290] reads 93.1%.
Take `O=c1c(C(F)(F)F)cccn1Cc1ccccc1` [CBK023620]: the viability at 28.5 h, 10 µM is 107%.
For `Cc1nc2ccc(C(=O)N3CCN(c4ccccc4)CC3)cn2c1N(C)C(=O)c1cccs1` [CBK146544], the viability at 28.5 h, 10 µM was determined as 99%.
As for `c1cc(COc2cncc(N3CCCC3)n2)cs1` [CBK115669], the viability at 28.5 h, 10 µM is 102%.
On the same count and under the same terms, the result for `C#CCNC(=O)C1CCN(c2nc3ccccc3n2C)CC1` [CBK283956] reads 89.7%.
For `N=C1NC(=O)/C(=C/c2ccc(O)c(Cl)c2)S1` [CBK100992], the viability at 28.5 h, 10 µM amounted to 109%.
On the same count and under the same terms, the result for `Cc1cc(C)nc(N2CCC(C3CC=CCN(CCc4ccccc4)C3=O)CC2)n1` (stereo not shown) [CBK285575] reads 105%; that for `O=C(O)c1cc(-c2cc(Cl)ccc2Cl)nc2ccccc12` [CBK265391], 96.1%.
In the case of `CSc1sc(C(=O)NC(=O)N2CCOCC2)c2c1-c1nocc1CC2` [CBK018284], the viability at 28.5 h, 10 µM worked out at 74.3%.
On the same count and under the same terms, the result for `CN(C)c1ccc(-c2cncc(NCc3ccc4c(c3)OCO4)n2)cc1` [CBK037190] reads 108%; that for `CCc1nnc(SCC(=O)Nc2cccc(OC)c2)[nH]1` [CBK270226], 93.7%.
As for `O=C(O)C1C2CCC(O2)C1C(=O)NC1CCCCC1` (stereo not shown) [CBK286848], the viability at 28.5 h, 10 µM (bulk resorufin, single well) was 85%.
For the molecule `Cc1nc(CC(=O)N2CCOC(c3ccc(F)cc3)C2)cs1` (stereo not shown) [CBK305759], the viability at 28.5 h, 10 µM was 106%.
Same read-out and setting: the figure for `Cc1nc2ncnn2c(C)c1CCC(=O)Nc1cccc(CCc2ccncc2)c1` [CBK285557] is 99.8%.
With `O=C(NCCCN1CCOCC1)c1cc2cc([N+](=O)[O-])ccc2oc1=O` [CBK263441], the viability at 28.5 h, 10 µM worked out at 90.9%.
Still for that read-out and setting: the figure for `COCC1(C(=O)N2CC(=O)N(c3ccc(C)cc3)CC2C)CCC1` (stereo not shown) [CBK307606] is 89.1%.
Same read-out and setting: the result for `NS(=O)(=O)c1ccc(N/C(S)=N\c2cccc(C(=O)O)c2)cc1` [CBK266880] reads 103%; that for `O=[N+]([O-])c1cccc(S(=O)(=O)NCc2ccccn2)c1` [CBK263669], 98.4%.
For `Nc1ncn(CC(O)CO)c2nc(N3CCOCC3)nc1-2` (stereo not shown) [CBK009231], the viability at 28.5 h, 10 µM was determined as 90.8%.
`Cc1nc(C2CCCCN2C(=O)CCc2ccccc2)ncc1C(=O)Nc1ccc(F)cc1` (stereo not shown) [CBK285870]: the viability at 28.5 h, 10 µM stood at 95.3%.
On the same count and under the same terms, the result for `O=C(NCc1ccncc1)c1nccnc1-c1ccc(COc2ccccc2)cc1` [CBK050836] reads 88.1%.

(Values after article PMC12040169 (PLOS Biology, 2025).)
